Data on 19 compounds can be found in US4269848A, “5-Substituted indan-2-carboxylic acid and functional derivatives” (Lipha, Lyonnaise Industrielle Pharmaceutique, priority 1976, dated 1981).

One data set relates to platelets. Kind of data set: In vitro inhibition of platelet aggregation induced by collagen (Born). Type of data set: cell-based. Particulars: read-out: minimal active concentration, Platelet Aggregation Induced By Collagen. On the procedure:
E--The anti-inflammatory activity was also determined by the aggregation-inhibiting effect of the compounds in accordance with the present invention, in vitro, on platelets the aggregation of which was induced by collagen, in accordance with the method of Born (Journal of Physiology, 1962, Vol. 162, page 67). It is known that compounds which inhibit the activity or quantity of prostaglandin synthetase will inhibit the formation of prostaglandin PGE2 and the inflammatory and pyretic effect thereof. Since prostaglandin PGE2 also causes an increase in platelet aggregation, this test is an effective indication of anti-inflammatory and anti-pyretic activity due to inhibition of prostaglandin synthetase.

Data set [1] deals with spasms of pain caused by the intraperitoneal injection of a solution of acetic acid. Kind of data set: Analgesic activity, acetic acid induced spasms of pain (Koster et al.). The class given is in vivo. Conditions: mouse, oral; dose reducing spasms of pain by 50%; read-out: AD50, Acetic Acid. How it is done:
B--Analgesic activity in the mouse was determined by the method of Koster et al. (Fed. Proc. 1959, Vol. 18, page 412). The active dose 50 (AD50) value for various compounds in accordance with the present invention was determined, namely, that dose which, when administered orally, reduces by 50% the spasms of pain caused by the intraperitoneal injection of a solution of acetic acid.

Data set [2] has as its system carrageenin-induced edema. Put plainly: Anti-inflammatory activity, carrageenin-induced edema test (Winter et al.). The class given is in vivo. Particulars: rat, oral; dose inhibiting edema by 30%; read-out: AD30, Carrageenin. The text has this:
The protection afforded, by oral administration of the compound to a rat against edema induced by injecting a suspension of carrageenin under the arch of the foot of the animal was investigated. The AD30 dose is that which inhibits the edema by 30%.

Data set [3] in a line: Acute toxicity, LD 50 (oral route), mice. Conditions: mouse, in vivo. The text has this:
A--The substances are of low toxicity. For example, the LD 50 value (oral route), determined in mice, of various compounds in accordance with the present invention are shown in column A of Table I.

The test system of data set [4] is erythema produced by ultra violet radiation. Kind of data set: Protective effect against erythema from ultra violet radiation (Winder et al.). Type of data set: in vivo, albino guinea pigs. Particulars: Cavia porcellus; albino guinea pig, oral; amount reducing erythema by 50%; read-out: AD50, U.V. On the procedure: D--The protective effect against inflammation resulting from exposure to radiation was determined in albino guinea pigs using the method of Winder et al (Arch. Inv. Pharmacodyn. 1958, Vol. 116, page 261). The AD50 value was determined for the test substance, namely the amount which, when administered to the animal orally, reduced by 50% the erythema produced by exposing the shaved dorsal skin of the guinea pig to ultra violet radiation.

Counter-ions that a name gives are not always drawn.

As a reminder, the LD50 is the dose at which mortality reaches 50%. Read a high LD50 as lower toxicity. Take `O=C(c1ccc2c(c1)CC(C(=O)O)C2)c1ccco1` (centres unmarked) [5-(2'-furoyl)-indan-2-carboxylic acid, 5-(2'-Furoyl)-indan-2-carboxylic acid]: the minimal effective concentration in the data set with platelets stood at 1 µg/mL. The ED50 in data set [1] was found to be 11 mg/kg; in data set [4], 14 mg/kg. Also, in data set [2], the ED30 was found to be 23 mg/kg. In data set [3], the LD50 came to 1000 mg/kg.
For `CCN(CC)CCNC(=O)C1Cc2ccc(C(=O)c3ccccc3)cc2C1` (centres unmarked) [N-[2'-(N',N'-diethylaminoethyl)] 5-benzoyl-indan-2-carboxamide], in that order: 2.5 µg/mL, 30 mg/kg, 25 mg/kg, 9 mg/kg and 1100 mg/kg.
On the same counts, the results for `Cc1ccc(C(=O)c2ccc3c(c2)CC(C(=O)O)C3)o1` (centres unmarked) [5-(5'-Methyl-2'-furoyl)-indan-2-carboxylic acid] are 1 µg/mL, 8 mg/kg, 16 mg/kg, 10 mg/kg and 2400 mg/kg.
For `COC(=O)C1Cc2ccc(C(=O)c3ccco3)cc2C1` (centres unmarked) [methyl 5-(2'-furoyl)-indan-2-carboxylate, Methyl 5-(2'-furoyl)-indan-2-carboxylate], in that order: 1 µg/mL, 9 mg/kg, 19 mg/kg, 13 mg/kg and 3200 mg/kg.
As for `O=C(c1ccc2c(c1)CC(C(=O)O)C2)c1cc(Cl)c(Cl)s1` (centres unmarked) [5-(4',5'-dichloro-2'-thenoyl)-indan-2-carboxylic acid], the minimal effective concentration with platelets worked out at 7.5 µg/mL. The ED50 in data set [1] stood at 30 mg/kg; in data set [4], 90 mg/kg. In addition, in data set [2], the ED30 turned out to be 42 mg/kg. For the same compound, in data set [3], the median lethal dose (LD50) came to 180 mg/kg.
For `CS(=O)(=O)c1ccc(C(=O)c2ccc3c(c2)CC(C(=O)O)C3)cc1` (centres unmarked) [5-(p-methylsulfonylbenzoyl)-indan-2-carboxylic acid], in that order: 1 µg/mL, 35 mg/kg, 10 mg/kg, 40 mg/kg and 2800 mg/kg.
On the same counts, the results for `CN(C)S(=O)(=O)c1ccc(C(=O)c2ccc3c(c2)CC(C(=O)O)C3)cc1` (centres unmarked) [5-(p-dimethylaminosulfonylbenzoyl)-indan-2-carboxylic acid] are 10 µg/mL, 80 mg/kg, over 300 mg/kg, 160 mg/kg and 2600 mg/kg.
For `O=C(c1ccoc1)c1ccc2c(c1)CC(C(=O)O)C2` (centres unmarked) [5-(3'-furoyl)-indan-2-carboxylic acid, 5-(3'-Furoyl)-indan-2-carboxylic acid], in that order: 5 µg/mL, 16 mg/kg, 18 mg/kg, 20 mg/kg and 2400 mg/kg.
As for `CCOC(=O)C1Cc2ccc(C(=O)c3ccc(NC(C)=O)c(Cl)c3)cc2C1` (centres unmarked) [Ethyl 5-(4'-acetamido-3'-chlorobenzoyl)-indan-2-carboxylate], the minimal effective concentration with platelets was found to be 5 µg/mL. In addition, the ED50 was found to be 35 mg/kg in data set [1] and 80 mg/kg in data set [4]. Further, in data set [2], the ED30 came to 60 mg/kg. The compound also returned an LD50 in data set [3] of 3200 mg/kg.
For `COc1ccc(C(=O)c2ccc3c(c2)CC(C(=O)O)C3)cc1` (centres unmarked) [5-(4'-Methoxybenzoyl)-indan-2-carboxylic acid], in that order: 2.5 µg/mL, 6 mg/kg, 34 mg/kg, 13 mg/kg and 650 mg/kg.
Take `CN(C)c1ccc(C(=O)c2ccc3c(c2)CC(C(=O)O)C3)cc1` (centres unmarked) [5-(4'-dimethylaminobenzoyl)-indan-2-carboxylic acid]: the minimal effective concentration with platelets turned out to be 0.5 µg/mL. Moreover, the ED50 is 3 mg/kg in data set [1] and 20 mg/kg in data set [4]. Moreover, in data set [2], the ED30 is 14 mg/kg. In addition, the LD50 in data set [3] worked out at 960 mg/kg.
Take `Cc1ccsc1C(=O)c1ccc2c(c1)CC(C(=O)O)C2` (centres unmarked) [5-(3'-Methyl-2'-thenoyl)-indan-2-carboxylic acid]: the minimal effective concentration in the data set on platelets is 10 µg/mL. The values for the ED50 in data set [1] and in data set [4] were 37 mg/kg and 25 mg/kg, respectively. In data set [2], the ED30 worked out at 26 mg/kg. In data set [3], this compound showed an LD50 of 1200 mg/kg.
Turning to `CCN(CC)CCNC(=O)C1Cc2ccc(C(=O)c3cccs3)cc2C1` (centres unmarked) [N-[2'-(N',N'-diethylaminoethyl)]5-(2'-thenoyl)-indan-2-carboxamide], the minimal effective concentration in the data set with platelets turned out to be 0.25 µg/mL. Also, the figures for the ED50 in data set [1] and in data set [4] were 2.5 mg/kg and 10 mg/kg, respectively. The ED30 in data set [2] was 8 mg/kg. The compound also displayed an LD50 in data set [3] of 660 mg/kg.
For `NS(=O)(=O)c1ccc(C(=O)c2ccc3c(c2)CC(C(=O)O)C3)cc1` (centres unmarked) [5-(p-sulfamidobenzoyl)-indan-2-carboxylic acid], in that order: 5 µg/mL, 25 mg/kg, 90 mg/kg, 43 mg/kg and over 3200 mg/kg.
On the same counts, the results for `O=C(c1ccccc1)c1ccc2c(c1)CC(C(=O)O)C2` (centres unmarked) [5-benzoyl-indan-2-carboxylic acid] are 2.5 µg/mL, 40 mg/kg, 40 mg/kg, 18 mg/kg and 2100 mg/kg.
As to `CCN(CC)CCOC(=O)C1Cc2ccc(C(=O)c3cccs3)cc2C1` (centres unmarked) [2'-(N,N-diethylaminoethyl) 5-(2'-thenoyl)-indan-2-carboxylate, hydrochloride], the minimal effective concentration in the data set on platelets is 0.25 µg/mL. Further, the ED50 in data set [1] was 4 mg/kg; in data set [4], 10 mg/kg. Moreover, the ED30 in data set [2] amounted to 8 mg/kg. Also, in data set [3], the LD50 turned out to be 2160 mg/kg.
On the same counts, the results for `CCN(CC)CCNC(=O)C1Cc2ccc(C(=O)c3cc(Cl)ccc3Cl)cc2C1` (centres unmarked) [N-[2'-(N',N'-diethylaminoethyl)]5-(2',5'-dichlorobenzoyl)-indan-2-carboxamide] are 2.5 µg/mL, 15 mg/kg, 50 mg/kg, 25 mg/kg and 720 mg/kg.
On the same counts, the results for `O=C(c1ccc2c(c1)CC(C(=O)O)C2)c1cccs1` (centres unmarked) [5-(2'-thenoyl)-indan-2-carboxylic acid] are 2.5 µg/mL, 6.5 mg/kg, 21 mg/kg, 10 mg/kg and 1200 mg/kg.
For `CCN(CC)CCOC(=O)C1Cc2ccc(C(=O)c3ccco3)cc2C1` (centres unmarked) [2'-(N,N-diethylaminoethyl) 5-(2'-furoyl)-indan-2-carboxylate], in the data set on platelets, the minimal effective concentration came to 1 µg/mL. Further, the ED50 in data set [1] came to 8 mg/kg; in data set [4], 20 mg/kg. The ED30 in data set [2] came out at 18 mg/kg. The compound further displayed an LD50 in data set [3] of 1200 mg/kg.
